# Data as given in patent publication US9976141B2, “Compositions and methods for inhibiting gene expression of Hif2alpha” (Arrowhead Madison Inc., priority 2015, dated 2018).
# System: human (tumor) Hif2α (EPAS1) mRNA
# Assay: Hif2α knockdown in orthotopic RCC tumor bearing mice, single injection of RNAi trigger-delivery polymer conjugate, RT-qPCR (Table 7)
# Type: in vivo
# Conditions: RNAi trigger 80 μg, polymer 126 400 μg; single tail vein injection; relative to isotonic glucose
# Summary of the method: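 A single intravenous dose of Hif2α RNAi trigger–delivery polymer conjugate, or isotonic glucose vehicle, was given to nude mice with subcapsular A498-SEAP renal tumours (about 5–6 weeks old). At the indicated time, tumour RNA was assayed by biplex TaqMan qPCR against CycA, and relative expression was calculated by ΔΔCT versus vehicle.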
row,Substance,Relative Expression day 4 (Hif2α mRNA in kidney tumor)
1,"AD01294 (antisense TUUCAUGAAAUCGUUACGUCGGCUGU; sense UAUAUCGACGUAACGAUUUCAUGAAA; Hif2alpha RNAi agent antisense strand; modified_base 25 modified base = “2′-hydroxy corresponding nucleoside”; modified_base 2,4,6,8,10,14,16,18,20 /mod_base = “2′-deoxy-2′-fluoro corresponding nucleoside”; modified_base 3,5,7,9,11,12,13,15,17,19,21,22,23,24,26 /mod_base = “2′-O-methyl corresponding nucleoside”; modified_base 2,3,23,24 /mod_base = “5′-phosphorothioate corresponding nucleotide”; Hif2alpha RNAi agent sense strand; modified_base 2,4 modified base = “2′-hydroxy corresponding nucleoside”; modified_base 6,8,10,12,14,15,16,18,20,22,24,26 /mod_base = “2′-deoxy-2′-fluoro correspondin)",0.17
2,"AD01295 (antisense TUUCAUGAAAUCGUUACGUUGGCUAU; sense UAUAUCAACGUAACGAUUUCAUGAAA; Hif2alpha RNAi agent antisense strand; modified_base 25 modified base = “2′-hydroxy corresponding nucleoside”; modified_base 2,4,6,8,10,14,16,18,20 /mod_base = “2′-deoxy-2′-fluoro corresponding nucleoside”; modified_base 3,5,7,9,11,12,13,15,17,19,21,22,23,24,26 /mod_base = “2′-O-methyl corresponding nucleoside”; modified_base 2,3,23,24 /mod_base = “5′-phosphorothioate corresponding nucleotide”; Hif2alpha RNAi agent sense strand; modified_base 2,4 modified base = “2′-hydroxy corresponding nucleoside”; modified_base 6,8,10,12,14,15,16,18,20,22,24,26 /mod_base = “2′-deoxy-2′-fluoro correspondin)",0.22
3,"AD01296 (antisense TUUCAUGAAAUCGUUACGUUGGCUTT; sense UAUAUCAACGUAACGAUUUCAUGAAA; Hif2alpha RNAi agent antisense strand; modified_base 2,4,6,8,10,14,16,18,20 /mod_base = “2′-deoxy-2′-fluoro corresponding nucleoside”; modified_base 3,5,7,9,11,12,13,15,17,19,21,22,23,24 /mod_base = “2′-O-methyl corresponding nucleoside”; modified_base 2,3,25,26 /mod_base = “5′-phosphorothioate corresponding nucleotide”; Hif2alpha RNAi agent sense strand; modified_base 2,4 modified base = “2′-hydroxy corresponding nucleoside”; modified_base 6,8,10,12,14,15,16,18,20,22,24,26 /mod_base = “2′-deoxy-2′-fluoro corresponding nucleoside”; modified_base 1,3,5,7,9,11,13,17,19,21,23,25 /mod_base = “2′)",0.21

# Same assay, conditions: RNAi trigger 150 μg, polymer 100A 300 μg; single tail vein injection; relative to isotonic glucose
row,Substance,Relative Expression day 4 (Hif2α mRNA in kidney tumor)
1,"AD01404 (antisense TUUCAUGAAAUCGUUACGUCGGCUAU; sense UAUAUCGACGUAACGAUUUCAUGAAA; Hif2alpha RNAi agent antisense strand; modified_base 25 modified base = “2′-hydroxy corresponding nucleoside”; modified_base 2,4,6,10,12,14,16,18,20 /mod_base = “2′-deoxy-2′-fluoro corresponding nucleoside”; modified_base 3,5,7,9,11,13,15,17,19,21,22,23,24,26 /mod_base = “2′-O-methyl corresponding nucleoside”; modified_base 8 /mod_base = “2′-3′ seco corresponding nucleotide”; modified_base 2,3,23,; Hif2alpha RNAi agent sense strand; modified_base 2,4 modified base = “2′-hydroxy corresponding nucleoside”; modified_base 6,8,10,12,14,16,18,20,22,24,26 /mod_base = “2′-deoxy-2′-fluoro correspondi)",0.58
2,"AD01405 (antisense TUUCAUGAAAUCGUUACGUCGGCUAU; sense UAUAUCGACGUAACGAUUUCAUGAAA; Hif2alpha RNAi agent antisense strand; modified_base 25 modified base = “2′-hydroxy corresponding nucleoside”; modified_base 2,4,6,10,12,14,16,18,20 /mod_base = “2′-deoxy-2′-fluoro corresponding nucleoside”; modified_base 3,5,7,9,11,13,15,17,19,21,22,23,24,26 /mod_base = “2′-O-methyl corresponding nucleoside”; modified_base 8 /mod_base = “2′-3′ seco corresponding nucleotide”; modified_base 2,3,23,; Hif2alpha RNAi agent sense strand; modified_base 2,4 modified base = “2′-hydroxy corresponding nucleoside”; modified_base 6,8,10,12,14,16,18,20,22,24,26 /mod_base = “2′-deoxy-2′-fluoro correspondi)",0.51
3,"AD01406 (antisense TUUCAUGAAAUCGUUACGUCGGCUAU; sense UAUAUCGACGUAACGAUUUCAUGAAA; Hif2alpha RNAi agent antisense strand; modified_base 25 modified base = “2′-hydroxy corresponding nucleoside”; modified_base 2,4,6,10,12,14,16,18,20 /mod_base = “2′-deoxy-2′-fluoro corresponding nucleoside”; modified_base 3,5,7,9,11,13,15,17,19,21,22,23,24,26 /mod_base = “2′-O-methyl corresponding nucleoside”; modified_base 8 /mod_base = “2′-3′ seco corresponding nucleotide”; modified_base 2,24 /m; Hif2alpha RNAi agent sense strand; modified_base 2,4 modified base = “2′-hydroxy corresponding nucleoside”; modified_base 6,8,10,12,14,16,18,20,22,24,26 /mod_base = “2′-deoxy-2′-fluoro correspondi)",0.45
